From patent publication US20170107254A1, “Modified Antimicrobial Peptides” (priority 2014, published 2017)
In brackets after ≈: the same amount, converted by molar mass. Where two headings read alike, the source gives them in different places. No end group written: not given here.

Key:
[1] = tested on: A. fumigatus (AM2002/066 and NPCF2939); test: Antifungal activity (CLSI M38-A2 micro-broth dilution) and MFC; assay type: cell-based; details: for A. fumigatus MIC100 / MIC: Table 5, average of two strains, 48 h at 30° C.; for MIC: read-out: A. fumigatus MIC100
Method: (§1) The fungal strains A. fumigatus (AM2002/066 and NPCF2939), A. flavus (01-1554 and NPCF7117) and A. niger (01-1494 and NCPF2022) were obtained from the National Collection of Pathogenic Fungi (NPCF) or American Type Culture Collection (ATCC). Fungal strains were grown on SAB slopes for 72 h at 30° C. before experimental use. C. albicans strain SC5314 was purchased from ATCC and grown overnight on SAB slopes at 30° C. before experimental use.
(§2) The antifungal activity of peptides was examined using the conditions of the Clinical Laboratory Standards Institute document M38-A2. Peptide antifungal activity was assessed by micro-broth dilutions with a serial two-fold dilution of test compound prepared in a 96 well plate from 0 to maximum concentration to be tested (here 2× concentration required, 250 μg/ml). Fungal suspensions were prepared by flooding slopes with PBS and filtering through gauze to collect spores. The suspension was then adjusted to a density of 2×10^4 colony-forming units/ml in 2× culture medium (RPMI 1640, 0.165 M MOPS, pH 7.4 with L-glutamine, without NaHCO3 medium) and an equal volume was added to the different peptide concentrations in the 96 well plate. Plates where incubated at 30° C. for 48 h before growth inhibition was determined by measuring absorbance at 530 nm (Biotek Powerwave). Antifungal activity was defined by the minimum inhibitory concentration (MIC), the concentration at which no growth was observed.
(§3) For examining the minimum fungicidal concentration (MFC) 10 μl of fungal and peptide suspension was transferred from every well to the corresponding well in a sterile 96-well plate containing fresh culture medium (RPMI-1640, 0.165 M MOPS, pH 7.4 with L-glutamine, without NaHCO3 medium). Aspergillus was then incubated for a further 48 h after which absorbance was measured at 530 nm. MFC was defined as the concentration at which no growth was observed.

[2] = tested on: A. flavus (01-1554 and NPCF7117); test: as above; assay type: cell-based; details: Table 5, average of two strains, 48 h at 30° C.; for MIC: Aspergillus flavus, read-out: A. flavus MIC100
Method: as §1, §2, §3

[3] = tested on: A. niger (01-1494 and NCPF2022); test: as above; assay type: cell-based; details: Table 5, average of two strains, 48 h at 30° C.; for MIC: Aspergillus niger, NCPF2022, read-out: A. niger MIC100
Method: as §1, §2, §3

A549 cells = details: lipid alone at 200 μg/ml
Method: The cell lines A549 (Human Lung Adenocarcinoma Epithelial Cell Line) and HepG2 (Human Hepatocellular Carcinoma Cell Line) were purchased from ATCC. A549 cells were maintained in F-12K medium (Gibco) containing 10% foetal bovine serum (Life Technologies) and 1% penicillin/streptomycin (Life Technologies) and HepG2 cells were maintained in Dulbecco's modified eagles medium (Gibco) containing 10% foetal bovine serum (Life Technologies), penicillin/streptomycin (Life Technologies) and 1% 0.01 mg/ml human transferrin (Sigma). Both were incubated at 37° C. with 5% CO2 until cells reached >80% confluence before splitting or experimental use.
Before exposure to peptides, the plate was incubated at 37° C. with 5% CO2 overnight to allow cells adhere. […] Medium was removed from the plate containing cells and peptide dilutions were transferred to cells and incubated for a further 3 h at 37° C. with 5% CO2. Cytotoxicity was determined by LIVE/DEAD® Viability/Cytotoxicity kit (Invitrogen Life Technologies), a working solution of 2 μM calcein AM and 4 μM EthD-1 and in conjunction Alamar Blue at a final concentration of 10% was added to the wells. Cells without peptides were the negative control and 1% DMSO was the positive control. Cells were incubated for 3 h again at 37° C. with 5% CO2.

[4] = tested on: human red blood cells (hRBC); test: Haemolysis of human red blood cells; details: lipid alone at 200 μg/ml
Method: Peptides were tested for their haemolytic activity against human red blood cells (hRBC). Fresh hRBCs collected in BD Vacutainer® tubes with EDTA were rinsed 3 times with PBS (pH 7.4) by centrifugation for 10 min at 800 g and resuspended, 1 in 10 diluted with PBS. […] Release of haemoglobin was then calculated by transferring supernatant to a flat bottomed 96-well plate and measuring absorbance at 578 nm. hRBCs with no peptides added and H2O provided the controls.

C. albicans SC5314 [5] = assay type: cell-based; details: RPMI-1640 and 25% plasma, 24 h data
Method: A peptide “master” plate was prepared by the addition of 200 μl of the 20 mg/ml stock to column 11 on a microtitre plate. One hundred microliters of sterile water was added to the remaining wells. Serial two-fold dilutions of the peptides were carried out across the plate from right to left. From the “master” plate, 25 μl of peptides were added to corresponding wells on three “working” plates. To each well on the “working” plate, 25 μl human plasma was added, resulting in the halving of both the concentration of the peptide in the working plate and human plasma. Column 12 contained the controls.
An overnight culture of C. albicans SC5314 was grown at 30° C. on Sabouraud dextrose agar and the cells were washed from the surface of the agar and diluted to the equivalent of the 0.5 MacFarland standard. A further 1:50 dilution of the cells into 2×RPMI-1640 was carried out, and 50 μl of the cell suspension was added to each well of the plate. […] Plates were incubated at 30° C. for 48 h with growth inhibition determined by measuring absorbance at 530 nm at 0 h, 24 h and 48 h on a BioTek PoweWave. Antifungal activity was defined by the minimum inhibitory concentration (MIC), the concentration at which no growth was observed.

C. albicans SC5314 [6] = assay type: cell-based; details: RPMI-1640, 48 h data
Method: The purity of the peptide was taken into account during the preparation to ensure preparation of the correct concentration. Peptides solutions were stored at −20° C. until required.
The antifungal activity of the peptides was based on that of the Clinical Laboratory Standards Institute document M27-A3. A serial two-fold dilution of peptide was prepared across a 96-well microtitre plate with concentration ranging from 2 mg/ml to […]; upon addition of the cells these concentrations shall be halved, with additional wells lacking peptide as a 0 mg/ml control. An addition control lacking culture was also prepared.
To prepare the fungal inoculum, an overnight culture of C. albicans SC5314 was grown at 30° C. on Sabouraud dextrose agar. Cells were washed from the surface of the agar and diluted to the equivalent of the 0.5 MacFarland standard. A further 1:50 dilution of the cells into 2×RPMI-1640 was carried out, and an equal volume was added to the different peptide concentrations in the microtitre plate. To measure the metabolic activity of the cells, 10 μl of a 0.25% solution of resazurin was added to each well. Plates were incubated in the dark at 30° C. for 48 h with growth inhibition determined by measuring absorbance at 530 nm/590 nm at 0 h, 24 h and 48 h on a BioTek PoweWave. Antifungal activity was defined by the minimum inhibitory concentration (MIC), the concentration at which no growth was observed.

C. albicans SC5314 [7] = assay type: cell-based
Method: 1×RPMI-1640 Buffered with Citrate Phosphate Buffer
Citrate phosphate buffer was prepared by mixing 0.1 M citric acid and 0.2 M dibasic sodium phosphate dodecahydrate in the proportions indicated in the Table 2 and the volume adjusted to 90 ml with dH2O.
pH buffered medium was prepared by dissolving 1.04 g RPMI-1640 premix powder in 10 ml citrate phosphate buffer. The volume was then adjusted to 40 ml with dH2O and the pH adjusted by addition of the acid or base. The volume was adjusted to 50 ml with dH2O. The medium was then filter sterilized by vacuum filtration through a 0.2 μm filter and stored at 4° C. and kept for up to 2 weeks.
The pH of RPMI-1640 was altered, using citrate phosphate buffer, to reflect the more acidic pH environment in the oral cavity. NP319 and NP377 were active against C. albicans SC5314 from pH 5.5-7.0 (Table 2). For all AMPs tested the optimum pH for activity was pH 5.5. NP377 maintained activity at 2 μg/ml from pH 5.5-7 with reduced activity at pH 5.

C. albicans SC5314 [8] = tested on: C. albicans SC5314
Method: (B) Efficacy of AMPs of same length was evaluated by MIC after 24 incubation at 37° C. Data is expressed as percentage of the positive growth controls. Data is the mean±standard error of the mean (n=3).
The efficacy of AMPs was determined versus C. albicans SC5314 before evaluating the effect of pH on activity.

[9] = neutral pH, no saliva, 24 h incubation at 37° C.

## CC(=O)O [Acetic (C2), Acetic]
[1]; Aspergillus fumigatus, lipid alone at 200 μg/ml, 48 h, read-out: % Growth Inhibition of A. fumigatus at 48 h
  inhibition at 200 µg/mL: 5%

## C[C@@H]1[C@H](O)[C@@H](C)/C=C/C=C/C=C/C=C/C=C/C=C/C=C/[C@H](O[C@@H]2O[C@H](C)[C@@H](O)[C@H](N)[C@@H]2O)C[C@@H]2O[C@](O)(C[C@@H](O)C[C@@H](O)[C@H](O)CC[C@@H](O)C[C@@H](O)CC(=O)O[C@H]1C)C[C@H](O)[C@H]2C(=O)O [Amphotericin B]
[2]
  A. flavus MIC100: 1.5 µg/mL
[1]
  A. fumigatus MIC100: 1 µg/mL
[3]
  A. niger MIC100: <1 µg/mL

## CCCC(=O)O [Butanoic (C4), Butanoic]
[1]; lipid alone at 200 μg/ml, 48 h
  % Growth Inhibition of A. fumigatus at 48 h: 35%
A549 cells
  % A549 Cell Death at 3 h: 0%
[4]
  % Haemolytic Activity at 3 h: 30%

## CC[C@H](C)C[C@H](C)CCCCCCCCC(=O)N[C@H]1C[C@@H](O)[C@@H](NCCN)NC(=O)[C@@H]2[C@@H](O)CCN2C(=O)[C@H]([C@H](O)CCN)NC(=O)[C@H]([C@H](O)[C@@H](O)c2ccc(O)cc2)NC(=O)[C@@H]2C[C@@H](O)CN2C(=O)[C@H]([C@@H](C)O)NC1=O [Caspofungin]
[2]
  MIC: 128 µg/mL (≈ 117 µM)
[1]; Aspergillus fumigatus
  MIC: 64 µg/mL (≈ 58.5 µM)
[3]
  MIC: 16 µg/mL (≈ 14.6 µM)

## CCCCCCCCCC(=O)O [Decanoic (C10), Decanoic]
[1]; lipid alone at 200 μg/ml, 48 h
  % Growth Inhibition of A. fumigatus at 48 h: 20%
A549 cells
  % A549 Cell Death at 3 h: 25%
[4]
  % Haemolytic Activity at 3 h: 10%

## CCCCCCCCCCCC(=O)O [Dodecanoic (C12), Dodecanoic]
[1]; lipid alone at 200 μg/ml, 48 h
  % Growth Inhibition of A. fumigatus at 48 h: 45%
A549 cells
  % A549 Cell Death at 3 h: 20%
[4]
  % Haemolytic Activity at 3 h: 20%

## OC(Cn1cncn1)(Cn1cncn1)c1ccc(F)cc1F [Fluconazole]
[2]
  MIC: 64 µg/mL (≈ 209 µM)
[1]; Aspergillus fumigatus
  MIC: 64 µg/mL (≈ 209 µM)
[3]
  MIC: 64 µg/mL (≈ 209 µM)

## CCCCCC(=O)O [Hexanoic (C6), Hexanoic]
[1]; lipid alone at 200 μg/ml, 48 h
  % Growth Inhibition of A. fumigatus at 48 h: 50%
A549 cells
  % A549 Cell Death at 3 h: 0%
[4]
  % Haemolytic Activity at 3 h: 40%

## CCC(C)n1ncn(-c2ccc(N3CCN(c4ccc(OCC5COC(Cn6cncn6)(c6ccc(Cl)cc6Cl)O5)cc4)CC3)cc2)c1=O (stereo not shown) [Itraconcazole]
[2]
  A. flavus MIC100: 1 µg/mL
[1]
  A. fumigatus MIC100: <1 µg/mL
[3]
  A. niger MIC100: <1 µg/mL

## N=C(N)NCCC[C@H](NC(=O)[C@H](CCCNC(=N)N)NC(=O)[C@H](CCCNC(=N)N)NC(=O)[C@H](CCCNC(=N)N)NC(=O)[C@H](CCCNC(=N)N)NC(=O)[C@H](CCCNC(=N)N)NC(=O)[C@H](CCCNC(=N)N)NC(=O)[C@H](CCCNC(=N)N)NC(=O)[C@H](CCCNC(=N)N)NC(=O)[C@H](CCCNC(=N)N)NC(=O)[C@H](CCCNC(=N)N)NC(=O)[C@H](CCCNC(=N)N)NC(=O)[C@H](CCCNC(=N)N)NC(=O)[C@@H](N)CCCNC(=N)N)C(=O)O [Novamycin]
C. albicans SC5314 [5]
  MIC50: 78.1 µg/mL (≈ 35.4 µM)
  MIC80: 156.25 to 312.5 µg/mL
  MIC100: 312.5 µg/mL (≈ 142 µM)
C. albicans SC5314 [6]
  MIC50: <2 µg/mL
  MIC80: 2 µg/mL (≈ 0.907 µM)
  MIC100: 4 µg/mL (≈ 1.81 µM)

## C[C@@H]1[C@H](O)[C@@H](C)/C=C/C=C/CC/C=C/C=C/C=C/C=C/C(O[C@H]2O[C@H](C)[C@@H](O)[C@H](N)[C@@H]2O)CC2O[C@](O)(CC(O)C(O)CCC(O)CC(O)CC(O)CC(=O)O[C@H]1C)CC(O)C2C(=O)O (stereo partly shown) [Nystatin]
C. albicans SC5314 [7]; pH 4.5
  MIC50: 2 µg/mL (≈ 2.16 µM)
  MIC100: 2 µg/mL (≈ 2.16 µM)
C. albicans SC5314 [7]; pH 5
  MIC50: 1 µg/mL (≈ 1.08 µM)
  MIC100: 1 µg/mL (≈ 1.08 µM)
C. albicans SC5314 [7]; pH 5.5
  MIC50: 1 µg/mL (≈ 1.08 µM)
  MIC100: 1 µg/mL (≈ 1.08 µM)
C. albicans SC5314 [7]; pH 6
  MIC50: 1 µg/mL (≈ 1.08 µM)
  MIC100: 1 µg/mL (≈ 1.08 µM)
C. albicans SC5314 [7]; pH 6.5
  MIC50: 1 µg/mL (≈ 1.08 µM)
  MIC100: 1 µg/mL (≈ 1.08 µM)
C. albicans SC5314 [7]; pH 7
  MIC50: 1 µg/mL (≈ 1.08 µM)
  MIC100: 1 µg/mL (≈ 1.08 µM)

## CCCCCCCC(=O)O [Octanoic (C8), Octanoic]
[1]; lipid alone at 200 μg/ml, 48 h
  % Growth Inhibition of A. fumigatus at 48 h: 60%
A549 cells
  % A549 Cell Death at 3 h: 5%

## CCCCCCCCCCCCCCCC(=O)O [Palmitic (C16), Palmitic]
[1]; lipid alone at 200 μg/ml, 48 h
  % Growth Inhibition of A. fumigatus at 48 h: 0%
A549 cells
  % A549 Cell Death at 3 h: 10%

## CCCCCCCCCCCCCC(=O)O [Tetradecanoic (C14), Tetradecanoic]
[1]; lipid alone at 200 μg/ml, 48 h
  % Growth Inhibition of A. fumigatus at 48 h: 15%
A549 cells
  % A549 Cell Death at 3 h: 0%
[4]
  % Haemolytic Activity at 3 h: 20%

## Palm-dRdRdRdRdRdRdRdRdRdRdRdR-CONH [NP375]
C. albicans SC5314 [8]; [9]
  MIC100: 16 µg/mL

## Poly-L-Arg, HCl salt [NP121]
C. albicans SC5314 [8]; [9]
  MIC80: 64 µg/mL

## RRRFRFRFRFRRR [NP466]
C. albicans SC5314 [8]; SC5314, 24 h
  MIC90: 32 µg/mL
C. albicans SC5314 [8]; [9]
  MIC100: did not achieve a MIC100

## dHdHdRdRdRdRdRdRdRdRdRdRdRdRdR-CONH [NP376]
C. albicans SC5314 [8]; [9]
  MIC100: 2 µg/mL
